Source: ChEMBL document CHEMBL1201862, “PubChem BioAssay data set” (2004)
Calls of active or inactive are those of the source.

Columns and labels:
[1] = HeLa cell cytotoxicity, dose response, cytotoxicity control, 24 h, plate reader, powder samples, set 3 (AID 651864); type: functional, cell-based
[2] = target: Glucose-6-phosphate 1-dehydrogenase (Homo sapiens, UniProt P11413); experiment: human G6PD enzyme inhibitors, dose response, selectivity assay for P. falciparum G6PD inhibitor project, biochemical, fluorescence (AID 504792); type: functional
[3] = target: T1, Voltage-gated N-type calcium channel alpha-1B subunit/Amyloid beta A4 precursor protein-binding family A member 1 (Homo sapiens, UniProt Q00975+Q02410); type: protein assay
T1 sequence (Q00975 whole entry): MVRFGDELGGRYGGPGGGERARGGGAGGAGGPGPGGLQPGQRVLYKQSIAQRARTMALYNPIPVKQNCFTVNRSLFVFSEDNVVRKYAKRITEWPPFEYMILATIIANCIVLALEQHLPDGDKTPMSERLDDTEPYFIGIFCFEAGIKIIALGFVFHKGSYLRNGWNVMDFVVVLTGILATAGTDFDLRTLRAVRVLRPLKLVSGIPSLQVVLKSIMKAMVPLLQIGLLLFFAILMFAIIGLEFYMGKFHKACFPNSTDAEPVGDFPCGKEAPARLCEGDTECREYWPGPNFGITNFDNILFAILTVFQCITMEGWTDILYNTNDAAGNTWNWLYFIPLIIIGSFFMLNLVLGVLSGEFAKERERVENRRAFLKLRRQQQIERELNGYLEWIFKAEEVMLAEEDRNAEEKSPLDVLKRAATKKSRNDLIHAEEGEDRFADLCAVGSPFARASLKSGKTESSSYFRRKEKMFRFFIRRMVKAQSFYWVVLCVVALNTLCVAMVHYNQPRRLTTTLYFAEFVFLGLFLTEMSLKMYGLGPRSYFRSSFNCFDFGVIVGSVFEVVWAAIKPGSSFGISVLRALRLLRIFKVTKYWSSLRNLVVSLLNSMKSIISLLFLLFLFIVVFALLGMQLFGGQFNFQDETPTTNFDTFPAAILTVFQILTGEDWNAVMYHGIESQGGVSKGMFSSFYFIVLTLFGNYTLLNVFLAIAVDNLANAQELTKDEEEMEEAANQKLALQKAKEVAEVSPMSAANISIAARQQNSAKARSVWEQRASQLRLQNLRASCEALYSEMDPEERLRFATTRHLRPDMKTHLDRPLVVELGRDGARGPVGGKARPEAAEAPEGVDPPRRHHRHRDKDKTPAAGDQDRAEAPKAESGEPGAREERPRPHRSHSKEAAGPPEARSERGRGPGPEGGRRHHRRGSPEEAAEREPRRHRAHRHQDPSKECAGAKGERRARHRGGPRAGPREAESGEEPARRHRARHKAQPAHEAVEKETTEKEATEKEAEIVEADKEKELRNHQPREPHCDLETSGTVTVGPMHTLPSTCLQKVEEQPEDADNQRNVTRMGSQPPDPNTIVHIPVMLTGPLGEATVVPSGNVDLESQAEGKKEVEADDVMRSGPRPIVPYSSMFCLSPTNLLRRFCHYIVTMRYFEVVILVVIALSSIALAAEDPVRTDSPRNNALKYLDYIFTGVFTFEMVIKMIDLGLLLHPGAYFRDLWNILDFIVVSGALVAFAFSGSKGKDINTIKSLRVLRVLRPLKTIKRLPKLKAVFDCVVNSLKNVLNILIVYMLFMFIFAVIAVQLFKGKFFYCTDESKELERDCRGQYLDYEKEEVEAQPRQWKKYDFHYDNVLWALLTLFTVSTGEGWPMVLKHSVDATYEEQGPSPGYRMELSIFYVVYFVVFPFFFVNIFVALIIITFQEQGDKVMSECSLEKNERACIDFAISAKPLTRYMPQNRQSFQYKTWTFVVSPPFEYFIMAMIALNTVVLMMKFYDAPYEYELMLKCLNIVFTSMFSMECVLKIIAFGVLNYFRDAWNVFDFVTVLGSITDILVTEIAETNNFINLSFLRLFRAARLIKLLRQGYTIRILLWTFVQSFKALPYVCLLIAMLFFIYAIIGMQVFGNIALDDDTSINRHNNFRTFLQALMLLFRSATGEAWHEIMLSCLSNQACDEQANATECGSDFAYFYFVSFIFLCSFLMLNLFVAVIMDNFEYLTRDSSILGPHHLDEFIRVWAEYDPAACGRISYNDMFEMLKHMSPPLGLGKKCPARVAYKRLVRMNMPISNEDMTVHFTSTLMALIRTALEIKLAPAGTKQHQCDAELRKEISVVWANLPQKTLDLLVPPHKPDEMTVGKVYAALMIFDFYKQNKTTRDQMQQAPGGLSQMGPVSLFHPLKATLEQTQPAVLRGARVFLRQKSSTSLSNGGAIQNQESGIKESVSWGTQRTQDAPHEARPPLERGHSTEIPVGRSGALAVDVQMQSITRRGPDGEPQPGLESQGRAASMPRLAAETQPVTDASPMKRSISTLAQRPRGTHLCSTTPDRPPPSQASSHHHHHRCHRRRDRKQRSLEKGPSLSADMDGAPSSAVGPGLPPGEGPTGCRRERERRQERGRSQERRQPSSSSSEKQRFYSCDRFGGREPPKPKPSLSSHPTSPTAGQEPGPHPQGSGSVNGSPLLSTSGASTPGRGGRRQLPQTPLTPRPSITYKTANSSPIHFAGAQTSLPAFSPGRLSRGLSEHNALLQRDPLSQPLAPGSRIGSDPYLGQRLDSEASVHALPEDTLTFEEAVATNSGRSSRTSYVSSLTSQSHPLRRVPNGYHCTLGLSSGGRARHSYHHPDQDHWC
T1 sequence (Q02410 whole entry): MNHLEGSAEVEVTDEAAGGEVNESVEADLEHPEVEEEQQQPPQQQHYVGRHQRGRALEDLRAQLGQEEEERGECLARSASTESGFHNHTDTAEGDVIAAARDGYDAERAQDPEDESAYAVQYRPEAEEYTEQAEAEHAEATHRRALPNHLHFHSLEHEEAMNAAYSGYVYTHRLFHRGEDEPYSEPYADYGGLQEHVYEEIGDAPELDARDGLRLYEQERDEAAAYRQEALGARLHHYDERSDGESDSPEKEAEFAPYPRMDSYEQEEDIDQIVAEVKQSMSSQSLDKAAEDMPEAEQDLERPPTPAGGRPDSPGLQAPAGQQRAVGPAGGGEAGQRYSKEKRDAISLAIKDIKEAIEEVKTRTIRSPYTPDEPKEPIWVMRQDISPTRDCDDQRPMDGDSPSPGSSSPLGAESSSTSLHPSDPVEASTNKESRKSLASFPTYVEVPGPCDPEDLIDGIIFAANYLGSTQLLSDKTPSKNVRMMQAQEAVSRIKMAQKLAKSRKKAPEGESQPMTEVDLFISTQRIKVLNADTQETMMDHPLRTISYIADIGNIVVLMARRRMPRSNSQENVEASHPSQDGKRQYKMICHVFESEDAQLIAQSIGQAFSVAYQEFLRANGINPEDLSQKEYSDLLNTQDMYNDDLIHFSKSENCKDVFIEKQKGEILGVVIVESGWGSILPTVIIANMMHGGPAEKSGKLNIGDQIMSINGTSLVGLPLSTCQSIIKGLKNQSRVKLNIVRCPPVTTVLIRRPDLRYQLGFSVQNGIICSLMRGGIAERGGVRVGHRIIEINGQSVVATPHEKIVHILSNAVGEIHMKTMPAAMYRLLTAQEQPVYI

[4] = target: T2, Sentrin-specific protease 8 (Homo sapiens, UniProt Q96LD8); type: functional
T2 sequence (Q96LD8 whole entry): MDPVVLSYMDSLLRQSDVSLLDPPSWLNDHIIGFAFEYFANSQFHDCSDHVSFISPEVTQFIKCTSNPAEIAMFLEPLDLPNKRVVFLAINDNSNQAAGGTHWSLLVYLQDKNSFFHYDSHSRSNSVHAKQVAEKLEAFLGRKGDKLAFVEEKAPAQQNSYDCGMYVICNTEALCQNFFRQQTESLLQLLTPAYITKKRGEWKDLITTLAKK

fMet-Leu-Phe receptor = fMet-Leu-Phe receptor (Homo sapiens, UniProt P21462); experiment: FPR ligands, dose response (AID 519); type: functional
[5] = target: T2, Sentrin-specific protease 8; type: functional; remark: listed apart in the source
[6] = target: T1, Voltage-gated N-type calcium channel alpha-1B subunit/Amyloid beta A4 precursor protein-binding family A member 1; type: protein assay; remark: listed apart in the source
[7] = HepG2 cell cytotoxicity, dose response, cytotoxicity control, ATP luminescence, cherry-pick, activator set 2 (AID 1053143); type: functional, cell-based
[8] = target: Matrix metalloproteinase-14 (Homo sapiens, UniProt P50281); experiment: Dose Response confirmation of uHTS hits for a small molecule inhibitors of MT1-MMP activation in a fluorescence assay set 1.; type: functional
[9] = LGR2 antagonists, dose response, cell-based, HEK293, CRE-luciferase reporter, cherry pick, set 2 (AID 743343); type: functional;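 note: transfected cells were stimulated with diluted bursicon conditioned medium after compound addition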
[10] = Luminescence Cell-Based Dose Confirmation HTS to Identify Inhibitors of Platelet Dense Granule Release. [Related pubchem assays: 1663 (Primary HTS), 1678 (Summary of Project)]; type: functional
cells [11] = type: functional, cell-based
[12] = A549 cell cytotoxicity, dose response, cytotoxicity control, plate reader, cherry-pick, antagonist series (AID 743412); type: functional, cell-based
[13] = cytotoxicity toward DRD oncogenic fibroblasts, dose response, cell-based, non-viral oncogenic, luminescence (AID 1934); type: functional; conditions: Homo sapiens
[14] = HEK293 cell cytotoxicity, dose response, cytotoxicity control, plate reader, cherry-picked samples (AID 743446); type: functional, cell-based
BJ [15] = experiment: cytotoxicity toward BJ-TERT-LT-ST fibroblasts, dose response, cell-based, RAS-independent, luminescence (AID 1935); type: functional; conditions: Homo sapiens;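 note: BJ fibroblasts immortalized with TERT plus LT and ST oncogenes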
INS1 = experiment: beta cell apoptosis inhibitors, cytokine rescue, dose response, luminescence, retest (AID 449756); type: functional, cell-based; conditions: Rattus norvegicus;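 note: cell death triggered by IL-1 beta plus TNF-alpha plus IFN-gamma mixture; protective hits raise ATP signal compared with cytokine alone wells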
[16] = HepG2 cell cytotoxicity, dose response, cytotoxicity control, plate reader, cherry-pick, antagonist series (AID 743416); type: functional, cell-based
BJ [17] = experiment: cytotoxicity toward BJ-TERT fibroblasts, dose response, cell-based, RAS-independent, luminescence (AID 1933); type: functional; conditions: Homo sapiens
BJ [18] = experiment: cells; type: functional, cell-based; conditions: Homo sapiens
[19] = target: Luciferin 4-monooxygenase (Photinus pyralis, UniProt P08659); experiment: firefly luciferase enzyme inhibitors, dose response, biochemical, luminescence (AID 1891)
[20] = MC4R antagonists, dose response, counter-screen for LGR2 antagonist project, cell-based, plate reader, cherry pick (AID 743444); type: functional;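 note: transfected HEK 293 cells stimulated with alpha-MSH peptide; potency of inhibitors of the alpha-MSH evoked signal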
cells [21] = type: functional, cell-based; remark: listed apart in the source
[22] = target: Broad substrate specificity ATP-binding cassette transporter ABCG2 (Homo sapiens, UniProt Q9UNQ0); experiment: ABCG2 efflux pump inhibitors, dose response, Ig-MXP3 cells, flow cytometry (AID 1690); type: functional
[23] = target: ATP-dependent translocase ABCB1 (Homo sapiens, UniProt P08183); experiment: ABCB1 efflux pump inhibitor potency, dose response, Jurkat-DNR cells, JC-1, flow cytometry (AID 1689); type: functional
ATP-dependent translocase ABCB1, sequence (P08183 whole entry): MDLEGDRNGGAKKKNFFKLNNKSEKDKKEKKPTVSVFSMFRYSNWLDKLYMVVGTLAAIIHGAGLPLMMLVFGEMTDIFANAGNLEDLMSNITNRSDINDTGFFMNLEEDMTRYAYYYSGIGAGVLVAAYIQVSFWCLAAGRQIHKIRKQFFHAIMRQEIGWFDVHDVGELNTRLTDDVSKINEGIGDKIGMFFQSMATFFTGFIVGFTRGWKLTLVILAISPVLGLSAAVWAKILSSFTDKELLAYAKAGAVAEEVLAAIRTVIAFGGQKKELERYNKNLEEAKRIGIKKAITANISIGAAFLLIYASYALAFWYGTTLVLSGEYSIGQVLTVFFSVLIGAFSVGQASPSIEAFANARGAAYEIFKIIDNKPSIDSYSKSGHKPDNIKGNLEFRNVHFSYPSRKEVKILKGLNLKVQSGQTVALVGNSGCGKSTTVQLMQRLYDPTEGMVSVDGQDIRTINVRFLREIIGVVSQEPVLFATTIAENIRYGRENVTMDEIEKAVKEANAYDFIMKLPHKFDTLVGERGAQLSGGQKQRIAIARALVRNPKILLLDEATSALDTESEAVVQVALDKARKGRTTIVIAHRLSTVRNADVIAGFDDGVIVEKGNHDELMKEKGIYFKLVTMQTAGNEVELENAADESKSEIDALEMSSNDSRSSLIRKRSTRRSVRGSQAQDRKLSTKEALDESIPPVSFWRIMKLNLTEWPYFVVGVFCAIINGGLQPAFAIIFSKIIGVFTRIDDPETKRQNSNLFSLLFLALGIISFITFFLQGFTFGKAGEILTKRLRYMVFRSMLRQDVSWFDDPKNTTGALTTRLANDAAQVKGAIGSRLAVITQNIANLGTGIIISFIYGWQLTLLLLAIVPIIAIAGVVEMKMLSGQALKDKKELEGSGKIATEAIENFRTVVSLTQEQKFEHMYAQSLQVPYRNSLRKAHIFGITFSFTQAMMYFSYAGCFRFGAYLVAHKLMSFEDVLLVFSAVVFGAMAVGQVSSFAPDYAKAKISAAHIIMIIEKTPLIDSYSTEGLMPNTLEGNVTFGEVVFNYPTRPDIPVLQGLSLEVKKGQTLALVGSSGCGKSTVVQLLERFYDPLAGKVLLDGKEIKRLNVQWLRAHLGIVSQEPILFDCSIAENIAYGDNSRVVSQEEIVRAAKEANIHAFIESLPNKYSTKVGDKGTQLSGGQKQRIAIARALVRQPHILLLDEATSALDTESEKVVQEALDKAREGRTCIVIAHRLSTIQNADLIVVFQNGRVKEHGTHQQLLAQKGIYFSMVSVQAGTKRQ

[24] = target: Long-chain-fatty-acid--AMP ligase FadD28 (Mycobacterium tuberculosis, UniProt P9WQ59); experiment: Fluorescence polarization aasay to screen for inhibitors that compete for the binding of FadD28 to a bisubstrate Measured in Biochemical System Using Plate Reader - 2147-01_Inhibitor_Dose_CherryPick_Activity.; type: functional, Mycobacterium tuberculosis H37Rv
[25] = HepG2 cell cytotoxicity, dose response, cytotoxicity control for Shn3 inhibitor project, CellTiter-Glo, cherry-picked (AID 624134); type: functional, cell-based
[26] = Shn3 3'UTR reporter inhibitors, dose response, cell-based, Clone20 osteoblasts, firefly luciferase, cherry-picked (AID 624132); type: functional;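 note: firefly luciferase luminescence from reporter carrying the Shn3 3'UTR in osteoblasts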
[27] = reduction of Shn3 3'UTR firefly luciferase signal, dose response, Schnurri-3 inhibitor project, cell-based, Clone20 osteoblasts, cherry-pick, set 2 (AID 720490); type: functional;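 note: actives lower the luminescence signal as inhibitors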
[28] = control 3'UTR Renilla luciferase suppression, dose response, counter-screen for Shn3 inhibitor project, cell-based, Clone20-Shn3RL, cherry-picked (AID 624133); type: functional
A549 = experiment: A549 cell toxicity, dose response, cytotoxicity control, plate reader, cherry-pick samples (AID 687028); type: functional, cell-based; conditions: Homo sapiens
Vero = experiment: cells; type: functional; conditions: Chlorocebus sabaeus
[29] = HeLa cell cytotoxicity, dose response, cytotoxicity control for MgcRacGAP inhibitor project (AID 624300); type: functional
[30] = miR-122Act:qPCR miR-122 Measured in Cell-Based System Using RT-PCR - 2144-04_Activator_Dose_CherryPick_Activity. (absACnn = the concentration at which the curve crosses threshold nn uM); type: functional
[31] = miR-122 activators in hepatoma reporter cells, dose response, cell-based, Huh7 psiCHECK-miR122, Renilla luciferase, cherry-picked (AID 651956); type: functional;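 note: huh7 hepatoma cells stably carrying a psiCHECK-2 miR-122 sensor plasmid; renilla luciferase signal reporting endogenous miR-122 activity after 48 h compound exposure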
[32] = HEK293 cell viability, dose response, counter-screen for EBV LMP1 inhibitor project, dry powder, set 2 (AID 624374); type: functional
[33] = HepG2 cell cytotoxicity, dose response, cytotoxicity control, luminescence plate reader, powder samples, set 2 (AID 651860); type: functional, cell-based
[34] = target: Metabotropic glutamate receptor 3 (Rattus norvegicus, UniProt P31422); experiment: mGlu3 NAM potency via calcium readout, dose response, mGlu3 NAM project, TREx293 cells, Galpha15, calcium flux (AID 651840); type: functional
[35] = T. cruzi intracellular amastigote growth inhibition, dose response, imaging, CA-I/72 strain, bovine embryo skeletal muscle, dry powder (AID 651885); type: functional, cell-based
[36] = T. cruzi growth inhibition in host cells, dose response, cell-based, plate reader, dry powder, set 2 (AID 652275); type: functional
[37] = target: Potassium channel subfamily K member 3 (Homo sapiens, UniProt O14649); experiment: TASK1 (KCNK3) potassium channel inhibitors, SAR follow-up, CHO cells, FluxOR thallium flux (AID 652212); type: functional
Potassium channel subfamily K member 3, sequence (O14649 whole entry): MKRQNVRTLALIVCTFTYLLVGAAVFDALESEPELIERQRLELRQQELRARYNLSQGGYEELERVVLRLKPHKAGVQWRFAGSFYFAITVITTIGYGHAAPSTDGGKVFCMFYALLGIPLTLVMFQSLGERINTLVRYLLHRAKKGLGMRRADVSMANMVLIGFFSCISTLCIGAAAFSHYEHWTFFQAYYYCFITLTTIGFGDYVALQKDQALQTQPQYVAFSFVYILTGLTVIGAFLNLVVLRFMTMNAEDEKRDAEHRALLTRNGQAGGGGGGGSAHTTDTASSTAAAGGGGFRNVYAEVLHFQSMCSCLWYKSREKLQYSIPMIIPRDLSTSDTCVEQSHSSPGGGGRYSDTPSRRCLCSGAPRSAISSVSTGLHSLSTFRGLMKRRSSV

[38] = target: Potassium channel subfamily K member 9 (Homo sapiens, UniProt Q9NPC2); experiment: TASK3 (KCNK9) channel inhibitors, thallium flux, SAR follow-up, selectivity assay for TASK1 inhibitor project, cell-based, FluxOR thallium flux, concentration-response (AID 652211); type: functional;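 note: potency is for inhibitors of the channel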
[39] = inhibitors of non-replicating M. tuberculosis, dose response, luciferase, dry powder (AID 651619); type: functional; conditions: Mycobacterium tuberculosis
[40] = inhibitors of non-replicating M. tuberculosis, dose response, luciferase, dry powder (AID 651620); type: functional; conditions: Mycobacterium tuberculosis
Protein Wnt-3a = Protein Wnt-3a (Mus musculus, UniProt P27467); experiment: SAR analysis of small molecule antagonists of Gli-SUFU in a Wnt3a luminescent reporter assay.; type: functional
cells [41] = conditions: A549
[42] = target: Induced myeloid leukemia cell differentiation protein Mcl-1 (Homo sapiens, UniProt Q07820); type: functional
[43] = inhibitors of PGC1a acetylation in cells, dose response, cell-based, cherry-picked samples (AID 720514); type: functional;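 note: potency may reflect raised or lowered acetylation signal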
[44] = THP-1 cell cytotoxicity, dose response, cytotoxicity control for Vif-APOBEC3G degradation inhibitor project, THP-1 cells (AID 1117359); type: functional; conditions: Human immunodeficiency virus 1, THP-1

CCCn1nnnc1NCc1ccc(N2CCCC2)cc1
AC50 [1]: > 160 µM (inactive)

COc1ccc2ccccc2c1C1CC(=O)N2CN(C3CCCCC3)CSC2=C1C#N (centres undefined)
IC50 [2]: > 80 µM (inactive)
IC50 [3]: > 50 µM (inactive)
IC50 [4]: 632 nM (active)
Ki (fMet-Leu-Phe receptor): 19.7 µM (inactive)
IC50 [5]: 5.43 µM (active)
IC50 [6]: > 56.8 µM (not active)

Cc1ccc(-c2noc(-c3ccccc3F)n2)cc1
AC50 [7]: 26 µM (active)

CCCN1/C(=C2/SC(=S)N(CC)C2=O)C=Cc2ccccc21
IC50 [8]: 30.6 µM (inactive)

Cc1nc2cc(-c3ccccc3)sc2c(=O)n1N
AC50 [9]: 868 nM (active)
EC50 [10]: 365 nM (active)
EC50 (cells [11]): 7.12 µM (active)
AC50 [12]: 5.97 µM (active)
EC50 [13]: 3.78 µM (active)
AC50 [14]: 5.12 µM (active)
EC50 (BJ [15]): 12 µM (active)
AC50 (INS1): 3.95 µM (active)
AC50 [16]: 5.13 µM (active)
EC50 (BJ [17]): 5.93 µM (active)
EC50 (BJ [18]): 2.32 µM (inconclusive)
EC50 [19]: 546 nM (active)
AC50 [20]: 1.17 µM (active)
EC50 (cells [21]): > 350 µM (not active)

N#Cc1ccc(COC(=O)c2ccc(N3CCCC3)c([N+](=O)[O-])c2)cc1
EC50 [22]: 450 nM (inactive)
EC50 [23]: 12 µM (inactive)

O=C(NC(NC(=S)N1CCOCC1)C(Cl)(Cl)Cl)c1cccc2ccccc12 (centres undefined)
AC50 [24]: > 100 µM (inactive)

CC(=O)Nc1ccc(OCC(=O)Nc2ccc(Cl)c(S(=O)(=O)N3CCOCC3)c2)cc1
AC50 [25]: 53.5 µM (active)
AC50 [26]: 1.59 µM (active)
AC50 [27]: 3.49 µM (active)
AC50 [28]: 9.23 µM (active)

COc1ccc(-c2cc(NC=O)c3ncc(-c4cc(OC)c(OC)c(OC)c4)n3c2)c(OC)c1
AC50 (A549): 13.6 µM (active)

O=[N+]([O-])/C=C/c1cc2ccccc2[nH]1
CC50 (Vero): > 25 µM (active)
CC50 [29]: 94.6 µM (active)

Cc1cccc(NC(=O)Nc2ccc3c(c2)C(=O)N(C)[C@@H]2CC[C@H](CC(=O)NCc4ccccc4Cl)O[C@H]2CO3)c1
AbsAC40_uM [30]: 8.38 µM
AC50 [31]: 9.59 µM (active)

C[C@@H]1CN([C@@H](C)CO)C(=O)Cc2cc(NC(=O)Cc3ccccc3)ccc2O[C@@H]1CN(C)Cc1ccc(C(F)(F)F)cc1
AbsAC35 [32]: 279.95 µM

O=C(O)[C@@H]1CCCC[C@@H]1C(=O)N1CCc2ccccc2[C@@H]1CN1C(=O)c2ccccc2C1=O
AC50 [33]: > 52 µM (inactive)

COc1ccc(C#Cc2ccc(C(=O)NC(C)CO)cc2)cc1 (centres undefined)
IC50 [34]: 4.73 µM

C[C@H]1CN([C@@H](C)CO)C(=O)c2cccc(NC(=O)c3ccncc3)c2O[C@@H]1CN(C)Cc1ccncc1
IC50 [35]: > 20 µM (inactive)

C[C@H]1CN([C@@H](C)CO)C(=O)c2cccc(NC(=O)c3ccncc3)c2O[C@@H]1CN(C)Cc1cccc(Cl)c1Cl
AC50 [36]: 25.5 nM (active)

CCOc1ccccc1NC(=O)c1cccc(NC(=O)C2CC2)c1
IC50 [37]: 1.07 µM (active)
IC50 [38]: 10.2 µM (active)

c1ccc(CSc2nnc(-c3ccncc3)o2)nc1
IC90 [39]: 16 µM (active)
IC90 [40]: 16 µM (active)

CC(C)(C)OC(=O)N1CCN(c2cc(NC(=O)c3ccccc3)ncn2)CC1
IC50 (Protein Wnt-3a): > 21.8 µM (inactive)

Cc1cccn2c(=O)c3cc(C(=O)NCc4ccco4)c(=N)n(CCc4ccccc4)c3nc12
AC50 (cells [41]): 39.9 µM (active)
IC50 [42]: 3.57 µM (active)
AC50 [43]: 28.4 µM (active)
CC50 [44]: 38.1 µM (active)
